Data published in patent publication US7399743B2, “Targeted thrombosis” (The Scripps Research Institute, priority 2001, dated 2008).
Entries after “also recorded” stand apart in the source; their conditions may differ.

How the values were obtained:
[1] = tested on: LnCap cells; assay: cell proliferation and viability assay (trypan blue); conditions: without / with D-β-E 0.1 uM
Description: A cell proliferation and viability assay was employed to assess DβE inhibitor activity using trypan blue staining. LnCap cells (4×10^4 cells/well) were seeded in 96 well plates. Different concentrations of the DβE inhibitor or the Asp-Glu (D-E) substrate were added to the media as indicated. The % cell viability was determined 48 hours after treatment as the number of living cells (unstained) divided by total cells count (stain+unstained cells).
A cell proliferation and viability assay was employed to assess DβE inhibitor activity using trypan blue staining. LnCap cells (4×10^4 cells/well) were seeded in 96 well plates. Different concentrations of the DβE inhibitor or the Asp-Glu (D-E) substrate were added to the media at the concentrations indicated in FIG. 13A. The % cell viability was determined 48 hours after treatment as the number of living cells (unstained) divided by total cells count (stain+unstained cells).
The cytotoxic effect of methotrexate was assessed with and without the presence of the PSMA inhibitor (D-β-E) or PSMA substrate (D-E) using a cell proliferation and viability assay.

[2] = target: NAALADase; conditions: read-out: Ki, inhibition of NAALADase activity; cited from earlier work
[3] = median lethal dose in mice; type: in vivo; conditions: 20 gm Balb/C mice
[4] = tested on: integrin-expressing CHO K1 cells; assay: cell-mediated coagulation assay with CHO K1 cells and human plasma; type: cell-based
Description: Coagulation assays were performed using an established procedure with some modifications to include a step for binding Tissue Factor constructs to cells. Platelet depleted, citrated human plasma pooled from multiple donors was used for these experiments. Cells are dislodged with trypsin free cell dissociation buffer (Gibco), and washed twice with TBS. Cells were then counted with cytometer. Only cells with viability greater than 90% were used for the assay. Varying concentrations of thrombogen were incubated with 10^5 cells in 100 ul TBS containing Ca^++ 10 mM and Mg^++ 5 mM for 15 minutes at 37° C. The assays were initiated by addition of 100 ul of pooled citrated plasma pre-warmed to 37° C. Clotting times were recorded as the interval between assay initiation and clot appearance.
Activation of the coagulation cascade was measured using a coagulation assay. Varying concentrations of Fn-TF or Tissue Factor were incubated with CHO K1 cells for 15 minutes. Coagulation assays were initiated with addition of 100 ul of pooled normal human plasma. The coagulation time was recorded as the interim between the initiation of assay and the appearance of the first fibrin strands.

[5] = tested on: integrin on CHO cells; assay: binding of Fn-TF to integrin-expressing CHO K1 cells (Western blot); conditions: for association with CHO cells: varying concentrations, 10^5 CHO K1 cells
Description: The binding of the Fn-TF protein to the integrin on CHO cells was monitored through direct incubation of varying concentrations of recombinant Fn-TF with 10^5 CHO K1 cells in TBS, 10 mM CaCl2, 5 mM MgSO4. The bound and unbound proteins were separated by centrifugation, and the bound Tissue Factor immunoreactivity was detected by Western blot. The amount of Tissue Factor bound was quantified by comparing the intensity of resulting bands on the membrane to that of a standard curve of Tissue Factor protein of known concentration using a densitometer.

[6] = target: T1, Factor VIIa (Homo sapiens, UniProt P08709); assay: amidolytic assay of Factor VIIa bound to Fn-TF or TF 1-218; type: biochemical; conditions: Factor VIIa 5nM, chromozym t-PA
T1 sequence (P08709 61-212 limits assumed): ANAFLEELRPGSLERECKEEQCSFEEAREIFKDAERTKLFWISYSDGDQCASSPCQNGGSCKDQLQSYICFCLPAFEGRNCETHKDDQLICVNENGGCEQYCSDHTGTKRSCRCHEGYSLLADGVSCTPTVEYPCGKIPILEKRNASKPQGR
T1 sequence (P08709 213-466 limits assumed): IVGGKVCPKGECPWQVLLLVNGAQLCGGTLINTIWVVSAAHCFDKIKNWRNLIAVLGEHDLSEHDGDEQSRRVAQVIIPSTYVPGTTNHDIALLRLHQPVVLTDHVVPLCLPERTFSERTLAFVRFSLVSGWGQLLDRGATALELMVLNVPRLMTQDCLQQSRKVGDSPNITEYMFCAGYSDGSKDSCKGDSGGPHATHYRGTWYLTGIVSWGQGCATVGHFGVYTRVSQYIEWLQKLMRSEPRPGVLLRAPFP
Description: The catalytic activity of Factor VIIa bound to Fn-TF for a peptidyl substrate was analyzed by hydrolysis of chromozym t-Pa (Boehringer Mannheim) and compared with that of the soluble TF 1-218. Varying concentrations TF 1-218 or Fn-TF were incubated with Factor VIIa at a final concentration of 5nM in the presence of 5 mM Ca^++ at ambient temperature for 15 minutes. Chromozym t-PA was added to a concentration of 1 mM. The initial rate of hydrolysis was measured at 406 nm with a kinetic micro-titer plate reader for 1 minute.

[7] = tested on: Factor X; assay: proteolytic activity of TF construct:Factor VIIa complexes toward Factor X; type: biochemical; conditions: soluble complexes, increasing concentration
Description: The proteolytic activities of both Fn-TF:Factor VIIa and TF 1-218:Factor VIIa complexes toward Factor X were determined by a functional assay (Schullek, Ruf et al. 1994) using Spectrozyme Factor Xa to assess Factor Xa generation. Briefly, varying concentrations of Fn-TF and TF1-218 were pre-incubated with Factor VIIa (75 nM) for 5 minutes at 37° C. in the presence of 5 mM CaCl2. The reaction was initiated by addition of substrate Factor X (1.5 uM). After incubation for 10 minutes at 37° C., the reaction was terminated by adding EDTA to a concentration of 0.1M. The amount of Factor Xa generated was determined by measuring Factor Xa amidolytic activity using […] of the chromogenic substrate Spectrozyme Fxa (American Diagnostica, Greenwich, Conn.). The rate of absorbance increase at 405 nM was measured in a kinetic micro-titer plate reader.
The effect of the fused docking structure on the proteolytic activity of TF:VIIa was studied by a linked functional assay (Schullek, Ruf et al. 1994). Varying concentrations of Fn-TF or TF1-218 were allowed to bind to 10 pM Factor VIIa for 5 minutes. […] The reaction was stopped by addition of 50 mM EDTA and the amount of Factor Xa generated was determined by measuring the Factor Xa amidolytic activity in the assay mixture using spetrozyme FXa as described above.

[8] = tested on: factor X; conditions: native Tissue Factor in phospholipid membrane environment; cited from earlier work

CN(Cc1cnc2nc(N)nc(N)c2n1)c1ccc(C(=O)N[C@@H](CCC(=O)O)C(=O)O)cc1 [MTX, methotrexate]
ID50/ID50* (enhancement of tumoricidal activity) [1]: 20

N[C@@H](Cn1oc(=O)[nH]c1=O)C(=O)O [Quisqalic acid, quisqalic acid]
Ki [2]: 1900 nM

Fn-TF: fusion of fibronectin type III repeat domains 8-11 (SEQ ID NO:9) or domain 10 (SEQ ID NO:10) with Tissue Factor residues 3-218
LD50 (median lethal dose) [3]: about 8 ug
coagulation activity compared with CHO K1 cells expressing approximately 5×10^5 native Tissue Factor molecules ([4]; 75 nM Fn-TF, 10^5 CHO K1 cells): approximately the same level of coagulation activity
coagulation activity ([4]; approximately 100,000 Fn-TF:integrin complexes per cell, CHO K1 cells): 40,000 milliunits
coagulation time ([4]; approximately 100,000 Fn-TF:integrin complexes per cell, CHO K1 cells, human plasma): about 20 seconds
Fn-TF molecules bound per cell ([5]; 75 nM Fn-TF incubated with 10^5 CHO K1 cells in 100 ul): approximately 5×10^5
association with CHO cells [5]: increasing amounts of Fn-TF become associated with CHO cells
cofactor enhancement of Factor VIIa amidolytic activity, compared with Tissue Factor [6]: Very little difference in amidolytic activity
proteolytic activity of the Factor VIIa complex toward Factor X [7]: increased proteolytic activity similar to the curve obtained with TF1-218

RGDS: RGDS (SEQ ID NO: 17) peptide that binds integrin (A RGDS peptide.) [reference compound]
inhibition of Fn-TF coagulation activity by RGDS peptide ([4]; Fn-TF (20 nM)+RGDS (500 μM), CHO K1 cells): fully blocked; also recorded: almost completely inhibited

B1: TF1-218: soluble extracellular domain of human Tissue Factor, SEQ ID NO:4 (protein, listed as Homo sapiens)
chain: SGTTNTVAAYNLTWKSTNFKTILEWEPKPVNQVYTVQISTKSGDWKSKCFYTTDTECDLTDEIVKDVKQTYLARVFSYPAGNVESTGSAGEPLYENSPEFTPYLETNLGQPTIQSFEQVGTKVNVTVEDERTLVRRNNTFLSLRDVFGKDLIYTLYYWKSSSSGKKTAKTNTNEFLIDVDKGENYCFSVQAVIPSRTVNRKSTDSPVECMGQEKGEFR
LD50 (median lethal dose) [3]: greater than 500 ug
association with CHO cells [5]: no demonstrable association

B2: truncated Tissue Factor: recombinant Tissue Factor containing only the extracellular domain, 219 amino acids, soluble (protein, listed as Homo sapiens)
chain: SGTTNTVAAYNLTWKSTNFKTILEWEPKPVNQVYTVQISTKSGDWKSKCFYTTDTECDLTDEIVKDVKQTYLARVFSYPAGNVESTGSAGEPLYENSPEFTPYLETNLGQPTIQSFEQVGTKVNVTVEDERTLVRRNNTFLSLRDVFGKDLIYTLYYWKSSSSGKKTAKTNTNEFLIDVDKGENYCFSVQAVIPSRTVNRKSTDSPVECMGQEKGEFRE
times less factor X-activating activity than native Tissue Factor [8]: approximately 10^5
